Measured values as given in ChEMBL document CHEMBL3808308, “Synergistic potentiation of (-)-lomaiviticin A cytotoxicity by the ATR inhibitor VE-821” (Bioorg Med Chem Lett, 2016).
Calls of active or inactive are those of the source. The calls are words filed in the database; no cut-off is given here.

Experiments:
[1] = test system: K562; assay: Potentiation of 0.025 nM (-)-lomaiviticin A-induced cytotoxicity against human K562 cells assessed as fraction ratio affected at 10 uM after 48 hrs by cell titer-glo luminescence assay; format: functional
[2] = test system: K562; assay: Potentiation of 2.5 nM (-)-lomaiviticin A-induced cytotoxicity against human K562 cells assessed as combination index at 10 uM after 24 hrs by cell titer-glo luminescence assay; format: functional
[3] = test system: K562; assay: Potentiation of 0.25 nM (-)-lomaiviticin A-induced cytotoxicity against human K562 cells assessed as fraction ratio affected at 10 uM after 24 hrs by cell titer-glo luminescence assay; format: functional
[4] = test system: K562; assay: Induction of apoptosis in human K562 cells assessed as gammaH2AX/53BP1 levels at 10 uM after 48 hrs by DAPI staining based immunofluorescence microscopy in presence of 25 to 250 pM (-)-lomaiviticin A; format: functional, cell-based
[5] = test system: K562; assay: Potentiation of 5 nM (-)-lomaiviticin A-induced cytotoxicity against human K562 cells assessed as fraction ratio affected at 10 uM after 48 hrs by cell titer-glo luminescence assay; format: functional
[6] = test system: K562; assay: Potentiation of 2.5 nM (-)-lomaiviticin A-induced cytotoxicity against human K562 cells assessed as combination index at 10 uM after 48 hrs by cell titer-glo luminescence assay; format: functional
[7] = test system: K562; assay: Potentiation of 0.025 nM (-)-lomaiviticin A-induced cytotoxicity against human K562 cells assessed as fraction ratio affected at 10 uM after 24 hrs by cell titer-glo luminescence assay; format: functional
[8] = test system: K562; assay: Potentiation of 0.5 nM (-)-lomaiviticin A-induced cytotoxicity against human K562 cells assessed as combination index at 10 uM after 24 hrs by cell titer-glo luminescence assay; format: functional
[9] = test system: K562; assay: Cytotoxicity against human K562 cells assessed as decrease in cell viability up to 10 uM after 24 to 48 hrs by cell titer-glo luminescence assay; format: cell-based
[10] = test system: K562; assay: Potentiation of 5 nM (-)-lomaiviticin A-induced cytotoxicity against human K562 cells assessed as combination index at 10 uM after 24 hrs by cell titer-glo luminescence assay; format: functional
[11] = test system: K562; assay: Induction of apoptosis in human K562 cells assessed as gammaH2AX/53BP1 levels at 10 uM after 48 hrs by DAPI staining based immunofluorescence microscopy; format: cell-based; details: k562, 48 h
[12] = test system: K562; assay: Potentiation of 0.025 nM (-)-lomaiviticin A-induced cytotoxicity against human K562 cells assessed as combination index at 10 uM after 48 hrs by cell titer-glo luminescence assay; format: functional
[13] = test system: K562; assay: Cytotoxicity against human K562 cells assessed as decrease in cell viability up to 2.5 to 10 uM after 24 to 48 hrs by cell titer-glo luminescence assay; format: cell-based
[14] = test system: K562; assay: Potentiation of 50 pM (-)-lomaiviticin A-induced cytotoxicity against human K562 cells assessed as decrease in cell viability at 10 uM after 48 hrs by cell titer-glo luminescence assay; format: functional
[15] = test system: K562; assay: Potentiation of 0.5 nM (-)-lomaiviticin A-induced cytotoxicity against human K562 cells assessed as combination index at 10 uM after 48 hrs by cell titer-glo luminescence assay; format: functional
[16] = test system: K562; assay: Induction of DNA double-strand breaks in human K562 cells after 24 hrs by neutral comet assay in presence of (-)-lomaiviticin A; format: functional, cell-based
[17] = test system: K562; assay: Potentiation of 5 nM (-)-lomaiviticin A-induced cytotoxicity against human K562 cells assessed as combination index at 10 uM after 48 hrs by cell titer-glo luminescence assay; format: functional
[18] = test system: K562; assay: Potentiation of 0.5 nM (-)-lomaiviticin A-induced cytotoxicity against human K562 cells assessed as fraction ratio affected at 10 uM after 48 hrs by cell titer-glo luminescence assay; format: functional
[19] = test system: K562; assay: Induction of DNA double-strand breaks in human K562 cells assessed as median tail moment at 10 uM after 24 hrs by neutral comet assay in presence of 500 pM (-)-lomaiviticin A; format: functional
[20] = test system: K562; assay: Potentiation of 0.25 nM (-)-lomaiviticin A-induced cytotoxicity against human K562 cells assessed as fraction ratio affected at 10 uM after 48 hrs by cell titer-glo luminescence assay; format: functional
[21] = test system: K562; assay: Potentiation of 0.25 nM (-)-lomaiviticin A-induced cytotoxicity against human K562 cells assessed as combination index at 10 uM after 24 hrs by cell titer-glo luminescence assay; format: functional
[22] = test system: K562; assay: Potentiation of 5 nM (-)-lomaiviticin A-induced cytotoxicity against human K562 cells assessed as fraction ratio affected at 10 uM after 24 hrs by cell titer-glo luminescence assay; format: functional
[23] = test system: K562; assay: Potentiation of 0.05 nM (-)-lomaiviticin A-induced cytotoxicity against human K562 cells assessed as combination index at 10 uM after 48 hrs by cell titer-glo luminescence assay; format: functional
[24] = test system: K562; assay: Potentiation of 50 pM (-)-lomaiviticin A-induced cytotoxicity against human K562 cells assessed as decrease in cell viability at 10 uM after 24 hrs by cell titer-glo luminescence assay; format: functional
[25] = test system: K562; assay: Potentiation of 0.05 nM (-)-lomaiviticin A-induced cytotoxicity against human K562 cells assessed as combination index at 10 uM after 24 hrs by cell titer-glo luminescence assay; format: functional
[26] = test system: K562; assay: Potentiation of 0.05 nM (-)-lomaiviticin A-induced cytotoxicity against human K562 cells assessed as fraction ratio affected at 10 uM after 48 hrs by cell titer-glo luminescence assay; format: functional
[27] = Cytotoxicity against human K562 cells assessed as decrease in cell viability after 24 hrs by cell titer-glo luminescence assay; format: cell-based; details: read-out: ED50
[28] = test system: K562; assay: Potentiation of 0.025 nM (-)-lomaiviticin A-induced cytotoxicity against human K562 cells assessed as combination index at 10 uM after 24 hrs by cell titer-glo luminescence assay; format: functional
[29] = test system: K562; assay: Potentiation of 2.5 nM (-)-lomaiviticin A-induced cytotoxicity against human K562 cells assessed as fraction ratio affected at 10 uM after 24 hrs by cell titer-glo luminescence assay; format: functional
[30] = test system: K562; assay: Potentiation of 0.5 nM (-)-lomaiviticin A-induced cytotoxicity against human K562 cells assessed as fraction ratio affected at 10 uM after 24 hrs by cell titer-glo luminescence assay; format: functional
[31] = test system: K562; assay: Potentiation of 2.5 nM (-)-lomaiviticin A-induced cytotoxicity against human K562 cells assessed as fraction ratio affected at 10 uM after 48 hrs by cell titer-glo luminescence assay; format: functional
[32] = Cytotoxicity against human K562 cells assessed as decrease in cell viability after 48 hrs by cell titer-glo luminescence assay; format: cell-based; details: read-out: ED50
[33] = test system: K562; assay: Potentiation of 500 pM (-)-lomaiviticin A-induced cytotoxicity against human K562 cells assessed as decrease in cell viability at 10 uM after 48 hrs by cell titer-glo luminescence assay; format: functional
[34] = test system: K562; assay: Potentiation of 0.05 nM (-)-lomaiviticin A-induced cytotoxicity against human K562 cells assessed as fraction ratio affected at 10 uM after 24 hrs by cell titer-glo luminescence assay; format: functional
[35] = test system: K562; assay: Potentiation of 0.25 nM (-)-lomaiviticin A-induced cytotoxicity against human K562 cells assessed as combination index at 10 uM after 48 hrs by cell titer-glo luminescence assay; format: functional

With `CS(=O)(=O)c1ccc(-c2cnc(N)c(C(=O)Nc3ccccc3)n2)cc1` the Ratio [1] was 0.3737, the CI [2] was 0.4019 and the Ratio [3] was 0.6516. For the same molecule, the Activity [4] was “Active”, the Ratio [5] was 0.9837 and the CI [6] was 0.6223. The Ratio [7] was 0.08806, the CI [8] was 0.09717 and the Activity [9] was < 13%. For the same molecule, the CI [10] was 0.6748, the Activity [11] was “Non-toxic” and the CI [12] was 0.2066. For the same molecule, the Activity [13] was “Non-toxic”, the Activity [14] was 40% and the CI [15] was 0.1448. For the same molecule, the Activity [16] was “Dose-dependent effect”, the CI [17] was 1.029 and the Ratio [18] was 0.961. The Activity [19] was 34, the Ratio [20] was 0.9206 and the CI [21] was 0.06881. It also gave a Ratio [22] of 0.9357, a CI [23] of 0.1328 and an Activity [24] of 18%. The CI [25] was 0.0774, the Ratio [26] was 0.6017 and the CC50 at 24 h [27] was 449 µM. For the same molecule, the CI [28] was 0.1138, the Ratio [29] was 0.8772 and the Ratio [30] was 0.814. It also gave a Ratio [31] of 0.966, a CC50 at 48 h [32] of 71 µM and an Activity [33] of 96%. For the same molecule, the Ratio [34] was 0.1819 and the CI [35] was 0.1058.
